Measurements: patent US10017468B2, “Substituted pyrrolidines as G-protein coupled receptor 43 agonists” (Ogeda SA, priority 2009, dated 2018)

Tested on: ob/ob mice
Experiment: Oral glucose tolerance test (OGTT) in ob/ob mice
Format: in vivo
Conditions: bi-daily 50 mg/kg during 28 days, AUC from -15 to 120 min
Experimental: Ob/ob or obese mice are leptin-deficient mice that eat excessively and become profoundly obese, hyperinsulinemic and hyperglycemic. It is an animal model of type II diabetes. Such model can be used for oral glucose tolerance tests (OGTTs). A total of sixteen (16) male ob/ob mice (6 weeks of age) were obtained from Harlan. Upon arrival to the animal unit, mice were housed 4 per cage in rodent cages mounted with feeders containing regular chow. The mice were put in a 12/12 h light-dark cycle (light from 0600-1800 h) with controlled temperature conditions (22-24° C.). Fed blood glucose and body-weight was measured on day −2 in the morning between 08:00 AM and 09:00 AM. Animals were randomized into 2 groups according to fed glucose levels (on day −2). […]
Day 1 is the first day of dosing. […] At −15 min, blood glucose was measured (using a glucose analyzer) and animals were dosed with compounds of the invention or vehicle. At time point 0, blood glucose was measured again and glucose was administered by oral gavage (1 g/kg glucose). The blood glucose was then measured at time points 15, 30, 45, 60 and 120 minutes. […] The percentages of AUC inhibition induced by compounds of the invention were calculated as follows: % of AUC inhibition: [1−(AUC compound/AUC vehicule)]*100.

COc1ccccc1-c1ccc(C(=O)N2[C@@H](c3ccccc3Cl)CC[C@H]2C(=O)O)cc1 [Compound 1, (2S,5R)-5-(2-chlorophenyl)-1-(2′-methoxy-[1,1′-biphenyl]-4-carbonyl)pyrrolidine-2-carboxylic acid]
% of AUC inhibition (blood glucose, OGTT): 40%
